For the experiment, the target named is T1, recombinant Vps34 (Homo sapiens, UniProt Q8NEB9).
T1 construct: purchased Invitrogen PV5126
Nature of the experiment: Phosphorylation of phosphatidylinositol (PI) by Vps34 in vitro, ADP detected by TR-FRET (HTRF Transcreener ADP). The experiment is classed as biochemical. Conditions: 10 μM ATP, 55 μg/ml PI, approximately 3 nM Vps34, 1 hour at ambient temperature; absolute IC50, mean of two independent experiments; read-out: IC50 activity range.

T1 sequence (Q8NEB9 whole entry): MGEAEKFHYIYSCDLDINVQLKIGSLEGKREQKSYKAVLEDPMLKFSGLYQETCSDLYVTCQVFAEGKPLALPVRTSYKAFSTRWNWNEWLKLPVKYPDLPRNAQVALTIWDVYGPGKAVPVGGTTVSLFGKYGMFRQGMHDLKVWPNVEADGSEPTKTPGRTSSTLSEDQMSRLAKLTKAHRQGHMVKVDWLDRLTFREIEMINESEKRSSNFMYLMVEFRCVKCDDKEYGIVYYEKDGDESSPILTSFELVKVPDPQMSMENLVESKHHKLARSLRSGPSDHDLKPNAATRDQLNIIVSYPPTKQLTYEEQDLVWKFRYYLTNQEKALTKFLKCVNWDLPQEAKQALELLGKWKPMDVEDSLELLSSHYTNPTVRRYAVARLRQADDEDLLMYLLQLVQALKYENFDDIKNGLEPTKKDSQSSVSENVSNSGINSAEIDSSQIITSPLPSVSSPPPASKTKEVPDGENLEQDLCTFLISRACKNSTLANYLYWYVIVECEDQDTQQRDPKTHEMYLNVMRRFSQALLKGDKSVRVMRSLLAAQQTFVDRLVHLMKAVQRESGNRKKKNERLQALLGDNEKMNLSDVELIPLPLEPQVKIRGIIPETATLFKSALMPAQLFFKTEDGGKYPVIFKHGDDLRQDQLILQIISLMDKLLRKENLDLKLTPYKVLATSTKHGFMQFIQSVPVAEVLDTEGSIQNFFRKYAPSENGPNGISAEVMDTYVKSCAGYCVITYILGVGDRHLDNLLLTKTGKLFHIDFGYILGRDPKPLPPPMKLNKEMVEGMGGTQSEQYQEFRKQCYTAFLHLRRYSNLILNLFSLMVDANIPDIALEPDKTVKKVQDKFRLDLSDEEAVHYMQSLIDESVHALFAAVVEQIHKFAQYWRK

Consider `C[C@@H]1COCCN1c1nc2n(c(=O)c1F)CCC(C)(C)N2Cc1ccon1` [Example 73, 3-Fluoro-9-isoxazol-3-ylmethyl-8,8-dimethyl-2-((R)-3-methyl-morpholin-4-yl)-6,7,8,9-tetrahydro-pyrimido[1,2-a]-pyrimidin-4-one], for which the IC50 was in the range of 10 to 100 nM.

Consider `C[C@@H]1COCCN1c1nc2n(c(=O)c1F)CCC(C)(C)N2Cc1ccnn1C(F)F` [Example 74, 9-(2-Difluoromethyl-2H-pyrazol-3-yl-methyl)-3-fluoro-8,8-dimethyl-2-((R)-3-methylmorpholin-4-yl)-6,7,8,9-tetrahydro-pyrimido[1,2-a]-pyrimidin-4-one], for which the half-inhibitory concentration (IC50) is 10 to 100 nM. Regarding `C[C@@H]1COCCN1c1cc(=O)n2c(n1)N(c1cccc(F)c1)[C@H](C(F)(F)F)CC2` [Example 75, (S)-9-(3-Fluoro-phenyl)-2-((R)-3-methylmorpholin-4-yl)-8-trifluoromethyl-6,7,8,9-tetrahydro-pyrimido[1,2-a]-pyrimidin-4-one], the IC50 is under 10 nM. Under `C[C@@H]1COCCN1c1cc(=O)n2c(n1)N(Cc1ccnc(Cl)c1)[C@H](C(F)(F)F)CC2` [Example 76, (S)-9-(2-Chloro-pyridin-4-ylmethyl)-2-((R)-3-methyl-morpholin-4-yl)-8-trifluoromethyl-6,7,8,9-tetrahydro-pyrimido[1,2-a]-pyrimidin-4-one] stands under 10 nM; under `C[C@@H]1COCCN1c1cc(=O)n2c(n1)N(Cc1ncco1)[C@H](C(F)(F)F)CC2` [Example 77, (S)-2-((R)-3-Methyl-morpholin-4-yl)-9-oxazol-2-ylmethyl-8-trifluoromethyl-6,7,8,9-tetrahydro-pyrimido[1,2-a]-pyrimidin-4-one], 10 to 100 nM. As for `C[C@@H]1COCCN1c1cc(=O)n2c(n1)N(Cc1cscn1)[C@H](C(F)(F)F)CC2` [Example 78, (S)-2-((R)-3-Methyl-morpholin-4-yl)-9-thiazol-4-ylmethyl-8-trifluoromethyl-6,7,8,9-tetrahydro-pyrimido[1,2-a]-pyrimidin-4-one], the half-maximal inhibitory concentration (IC50) is under 10 nM. For `C[C@@H]1COCCN1c1cc(=O)n2c(n1)N(c1ccnc(Cl)c1)[C@H](C(F)(F)F)CC2` [Example 79, (S)-9-(2-Chloro-pyridin-4-yl)-2-((R)-3-methylmorpholin-4-yl)-8-trifluoromethyl-6,7,8,9-tetrahydro-pyrimido[1,2-a]-pyrimidin-4-one] the value was under 10 nM; for `COc1cc(N2c3nc(N4CCOC[C@H]4C)cc(=O)n3CC[C@H]2C(F)(F)F)ccn1` [Example 80, (S)-9-(2-Methoxy-pyridin-4-yl)-2-((R)-3-methylmorpholin-4-yl)-8-trifluoromethyl-6,7,8,9-tetrahydro-pyrimido[1,2-a]-pyrimidin-4-one], under 10 nM; for `C[C@@H]1COCCN1c1cc(=O)n2c(n1)N(c1ccc(C(F)(F)F)nc1)[C@H](C(F)(F)F)CC2` [Example 81, (S)-2-((R)-3-Methyl-morpholin-4-yl)-8-trifluoromethyl-9-(6-trifluoromethylpyridin-3-yl)-6,7,8,9-tetrahydro-pyrimido[1,2-a]-pyrimidin-4-one], under 10 nM.

Regarding `C[C@@H]1COCCN1c1cc(=O)n2c(n1)N(CCOCC(F)(F)F)[C@H](C(F)(F)F)CC2` [Example 82, (S)-2-((R)-3-Methyl-morpholin-4-yl)-9-[2-(2,2,2-trifluoro-ethoxy)ethyl]-8-trifluoromethyl-6,7,8,9-tetrahydro-pyrimido[1,2-a]-pyrimidin-4-one], the IC50 was under 10 nM. Consider `Cc1ccc(N2c3nc(N4CCOC[C@H]4C)cc(=O)n3CC[C@H]2C(F)(F)F)cn1` [Example 83, (S)-2-((R)-3-Methyl-morpholin-4-yl)-9-(6-methylpyridin-3-yl)-8-trifluoromethyl-6,7,8,9-tetrahydro-pyrimido[1,2-a]-pyrimidin-4-one], for which the concentration for half-maximal inhibition (IC50) was under 10 nM. With `C[C@@H]1COCCN1c1cc(=O)n2c(n1)N(CC(C)(C)O)[C@H](C(F)(F)F)CC2` [Example 84, (S)-9-(2-Hydroxy-2-methylpropyl)-2-((R)-3-methylmorpholin-4-yl)-8-trifluoromethyl-6,7,8,9-tetrahydro-pyrimido[1,2-a]-pyrimidin-4-one], the IC50 was under 10 nM. Turning to `CC(C)Oc1ccc(N2c3nc(N4CCOC[C@H]4C)cc(=O)n3CC[C@H]2C(F)(F)F)cn1` [Example 85, (S)-9-(6-Isopropoxy-pyridin-3-yl)-2-((R)-3-methylmorpholin-4-yl)-8-trifluoromethyl-6,7,8,9-tetrahydro-pyrimido[1,2-a]-pyrimidin-4-one], the half-maximal inhibitory concentration (IC50) was under 10 nM. For `C[C@@H]1COCCN1c1cc(=O)n2c(n1)N(Cc1ccc(Cl)cn1)[C@H](C(F)(F)F)CC2` [Example 86, (S)-9-(5-Chloro-pyridin-2-ylmethyl)-2-((R)-3-methyl-morpholin-4-yl)-8-trifluoromethyl-6,7,8,9-tetrahydro-pyrimido[1,2-a]-pyrimidin-4-one] the value was under 10 nM; for `C[C@@H]1COCCN1c1cc(=O)n2c(n1)N(Cc1cncs1)[C@H](C(F)(F)F)CC2` [Example 87, (S)-2-((R)-3-Methyl-morpholin-4-yl)-9-thiazol-5-ylmethyl-8-trifluoromethyl-6,7,8,9-tetrahydro-pyrimido[1,2-a]-pyrimidin-4-one], under 10 nM; for `C[C@@H]1COCCN1c1cc(=O)n2c(n1)N(c1ccc(C3CCC3)nc1)[C@H](C(F)(F)F)CC2` [Example 88, (S)-9-(6-Cyclobutyl-pyridin-3-yl)-2-((R)-3-methylmorpholin-4-yl)-8-trifluoromethyl-6,7,8,9-tetrahydro-pyrimido[1,2-a]-pyrimidin-4-one], under 10 nM. As to `C[C@@H]1COCCN1c1cc(=O)n2c(n1)N(c1ccnc(C3CC3)c1)[C@H](C(F)(F)F)CC2` [Example 89, (S)-9-(2-Cyclopropyl-pyridin-4-yl)-2-((R)-3-methylmorpholin-4-yl)-8-trifluoromethyl-6,7,8,9-tetrahydro-pyrimido[1,2-a]-pyrimidin-4-one], the concentration for half-maximal inhibition (IC50) is under 10 nM.

Take `COCCN1c2nc(N3CCOC[C@H]3C)cc(=O)n2CC[C@H]1C(F)(F)F` [Example 90, (S)-9-(2-Methoxy-ethyl)-2-((R)-3-methyl-morpholin-4-yl)-8-trifluoromethyl-6,7,8,9-tetrahydro-pyrimido[1,2-a]-pyrimidin-4-one]: the IC50 was under 10 nM. For `C[C@@H]1COCCN1c1cc(=O)n2c(n1)N(Cc1cnco1)[C@H](C(F)(F)F)CC2` [Example 91, (S)-2-((R)-3-Methyl-morpholin-4-yl)-9-oxazol-5-ylmethyl-8-trifluoromethyl-6,7,8,9-tetrahydro-pyrimido[1,2-a]-pyrimidin-4-one] the value was under 10 nM. Under `C[C@@H]1COCCN1c1cc(=O)n2c(n1)N(Cc1ccc(F)cn1)[C@H](C(F)(F)F)CC2` [Example 92, (S)-9-(5-Fluoropyridin-2-ylmethyl)-2-((R)-3-methylmorpholin-4-yl)-8-trifluoromethyl-6,7,8,9-tetrahydro-pyrimido[1,2-a]-pyrimidin-4-one] stands under 10 nM; under `Cc1nc(CN2c3nc(N4CCOC[C@H]4C)cc(=O)n3CC[C@H]2C(F)(F)F)c(C)o1` [Example 93, (S)-9-(2,5-Dimethyl-oxazol-4-ylmethyl)-2-((R)-3-methyl-morpholin-4-yl)-8-trifluoromethyl-6,7,8,9-tetrahydro-pyrimido[1,2-a]-pyrimidin-4-one], under 10 nM; under `C[C@@H]1COCCN1c1cc(=O)n2c(n1)N(Cc1cncc(F)c1)[C@H](C(F)(F)F)CC2` [Example 94, (S)-9-(5-Fluoropyridin-3-ylmethyl)-2-((R)-3-methylmorpholin-4-yl)-8-trifluoromethyl-6,7,8,9-tetrahydro-pyrimido[1,2-a]-pyrimidin-4-one], under 10 nM. With `Cc1nnc(CN2c3nc(N4CCOC[C@H]4C)cc(=O)n3CC[C@H]2C(F)(F)F)o1` [Example 96, (S)-2-((R)-3-Methyl-morpholin-4-yl)-9-(5-methyl-[1,3,4]oxadiazol-2-yl-methyl)-8-trifluoromethyl-6,7,8,9-tetrahydro-pyrimido[1,2-a]-pyrimidin-4-one], the IC50 is under 10 nM. Consider `C[C@@H]1COCCN1c1nc2n(c(=O)c1F)CC[C@@H](C(F)(F)F)N2CC(=O)C(C)(C)C` [Example 97, (S)-9-(3,3-Dimethyl-2-oxobutyl)-3-fluoro-2-((R)-3-methyl-morpholin-4-yl)-8-trifluoromethyl-6,7,8,9-tetrahydro-pyrimido[1,2-a]-pyrimidin-4-one], for which the IC50 is under 10 nM.

For the compound `C[C@@H]1COCCN1c1cc(=O)n2c(n1)N(Cc1ccc(Cl)s1)[C@H](C(F)(F)F)CC2` [Example 98, (S)-9-(5-Chloro-thiophen-2-ylmethyl)-2-((R)-3-methyl-morpholin-4-yl)-8-trifluoromethyl-6,7,8,9-tetrahydro-pyrimido[1,2-a]-pyrimidin-4-one], the IC50 was under 10 nM.

As to `C[C@@H]1COCCN1c1cc(=O)n2c(n1)N(CC(=O)c1ccccc1)[C@H](C(F)(F)F)CC2` [Example 99, (S)-2-((R)-3-Methyl-morpholin-4-yl)-9-(2-oxo-2-phenylethyl)-8-trifluoromethyl-6,7,8,9-tetrahydro-pyrimido[1,2-a]-pyrimidin-4-one], the IC50 is under 10 nM. For `CO[C@H](CN1c2nc(N3CCOC[C@H]3C)cc(=O)n2CC[C@H]1C(F)(F)F)c1ccccc1` [Example 100, (S)-9-((S)-2-Methoxy-2-phenylethyl)-2-((R)-3-methylmorpholin-4-yl)-8-trifluoromethyl-6,7,8,9-tetrahydro-pyrimido[1,2-a]-pyrimidin-4-one], the IC50 is under 10 nM. Turning to `Cc1cc(CN2c3nc(N4CCOC[C@H]4C)cc(=O)n3CC[C@H]2C(F)(F)F)on1` [Example 101, (S)-9-(3-Methyl-isoxazol-5-ylmethyl)-2-((R)-3-methyl-morpholin-4-yl)-8-trifluoromethyl-6,7,8,9-tetrahydro-pyrimido[1,2-a]-pyrimidin-4-one], the IC50 was under 10 nM.

On to `C[C@@H]1COCCN1c1cc(=O)n2c(n1)N(CC(=O)c1ccccn1)CC[C@@H]2C(F)(F)F` [Example 102, (R)-2-((R)-3-Methyl-morpholin-4-yl)-9-(2-oxo-2-pyridin-2-yl-ethyl)-6-trifluoromethyl-6,7,8,9-tetrahydro-pyrimido[1,2-a]-pyrimidin-4-one], for which the IC50 is under 10 nM.

Broadly, the IC50 is the midpoint of a concentration-inhibition curve.
